Read-outs that look alike come from different tables or passages of the source.
Columns and labels:
CDK2/Cyclin E = molecular target: T1, CDK2/Cyclin E (Homo sapiens, UniProt P24941); assay: Enzymatic phosphorylation activity assay (Caliper mobility shift), CDK2/Cyclin E; format: biochemical
T1 construct: purchased Eurofins 14-475
Protocol: (§1) Inhibitory effects of the compounds of the disclosure were measured in biochemical assays that measure the enzymatic phosphorylation activity of CDK enzyme in complex of Cyclin proteins phosphorylates 7.5 micromolar fluorescently labelled peptide substrate, 5-FAM-QSPKKG-CONH2, (FL-Peptide 18, Perkin Elmer, 760362) in the presence of adenosine-5′-triphosphate (ATP) and varying concentrations of the test compound in 100 mM 2-[4-(2-hydroxyethyl)piperazin-1-yl] ethanesulfonic acid (HEPES), pH 7.5, 10 mM MgCl2, 0.015% Brij-35, 1 mM dithiothreitol (DTT), 1.0% dimehylsulfoxide (DMSO). […] Reactions proceeded until between 10% to 20% total peptides were phosphorylated at room temperature (25° C.) and were terminated with 35 mM 2,2′,2″,2″-(ethane-1,2-diyldinitrilo)tetraacetic acid (EDTA). Product was detected using the Caliper mobility shift detection method where the phosphorylated peptide (product) and substrate were electrophoretically separated and measured. Percent activity was plotted against log concentration of compound and points to generate an apparent IC50. The following CDK enzymes in complex with different cyclin proteins were used in these assays: • CDK1/Cyclin B1, GST-tag (BPS, 40454), 1.5 nM used in the assay • CDK2/Cyclin E (Eurofins, 14-475), 1.25 nM used in the assays

CDK1/Cyclin B1, GST-tag = molecular target: T2, CDK1/Cyclin B1, GST-tag (Homo sapiens, UniProt P06493); assay: Enzymatic phosphorylation activity assay (Caliper mobility shift), CDK1/Cyclin B1; format: biochemical
T2 construct: GST; purchased BPS 40454
Protocol: as §1

[1] = read-out: Enzyme CDK2/cyclin E IC50
[2] = read-out: Enzyme CDK1/cyclin B1 IC50

T2 sequence (P06493 whole entry): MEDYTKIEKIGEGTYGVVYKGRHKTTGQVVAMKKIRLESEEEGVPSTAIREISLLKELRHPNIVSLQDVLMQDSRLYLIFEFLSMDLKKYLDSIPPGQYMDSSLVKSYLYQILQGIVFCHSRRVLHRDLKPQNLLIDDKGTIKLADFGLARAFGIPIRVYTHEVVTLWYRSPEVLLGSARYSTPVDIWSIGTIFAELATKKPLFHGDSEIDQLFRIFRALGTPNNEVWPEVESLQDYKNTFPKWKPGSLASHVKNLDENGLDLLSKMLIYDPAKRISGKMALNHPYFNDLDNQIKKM
T2 sequence (P14635 whole entry partner): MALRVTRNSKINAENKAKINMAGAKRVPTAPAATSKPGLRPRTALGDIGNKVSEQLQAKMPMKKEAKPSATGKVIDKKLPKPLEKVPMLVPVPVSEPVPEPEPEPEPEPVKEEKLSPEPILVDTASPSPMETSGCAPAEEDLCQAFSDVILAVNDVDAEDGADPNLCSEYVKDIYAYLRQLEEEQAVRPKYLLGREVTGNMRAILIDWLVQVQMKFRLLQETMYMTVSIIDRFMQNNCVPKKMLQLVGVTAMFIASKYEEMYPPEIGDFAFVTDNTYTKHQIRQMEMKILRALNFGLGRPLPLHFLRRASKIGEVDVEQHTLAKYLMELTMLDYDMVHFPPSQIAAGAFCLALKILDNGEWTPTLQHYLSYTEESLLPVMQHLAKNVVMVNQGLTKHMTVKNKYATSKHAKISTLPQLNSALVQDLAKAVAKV

IC50 (CDK2/Cyclin E; [1]) [nM]	IC50 (CDK1/Cyclin B1, GST-tag; [2]) [nM]	Molecule	IC50 (CDK2/Cyclin E; apparent IC50, 1.25 nM enzyme, 7.5 micromolar FL-Peptide 18, 1.0 mM ATP or ATP Km, 25° C.) [nM]	IC50 (CDK1/Cyclin B1, GST-tag; apparent IC50, 1.5 nM enzyme, 7.5 micromolar FL-Peptide 18, 1.0 mM ATP or ATP Km, 25° C.) [nM]
0.44	115	CC(C)c1cc(Nc2cnc3ccn(CC4CCOCC4)c3n2)n[nH]1 [Example 1, N-(5-isopropyl-1H-pyrazol-3-yl)-5-((tetrahydro-2H-pyran-4-yl)methyl)-5H-pyrrolo[2,3-b]pyrazin-3-amine]	–	–
0.71	163	FC(F)Oc1cc(Nc2cnc3ccn(CC4CCOCC4)c3n2)n[nH]1 [Example 2, N-(5-(difluoromethoxy)-1H-pyrazol-3-yl)-5-((tetrahydro-2H-pyran-4-yl)methyl)-5H-pyrrolo[2,3-b]pyrazin-3-amine]	–	–
0.03	40	CC(C)c1cc(Nc2cnc3ccn([C@@H](C)c4cccnc4)c3n2)n[nH]1 [Example 3, (S)—N-(5-isopropyl-1H-pyrazol-3-yl)-5-(1-(pyridin-3-yl)ethyl)-5H-pyrrolo[2,3-b]pyrazin-3-amine]	–	–
0.31	54	CC(C)c1cc(Nc2cnc3ccn([C@H](C)c4cccnc4)c3n2)n[nH]1 [Example 4, (R)—N-(5-isopropyl-1H-pyrazol-3-yl)-5-(1-(pyridin-3-yl)ethyl)-5H-pyrrolo[2,3-b]pyrazin-3-amine]	–	–
0.22	224	C[C@@H](c1cccnc1)n1ccc2ncc(Nc3cc(OC(F)F)[nH]n3)nc21 [Example 5, (S)—N-(5-(difluoromethoxy)-1H-pyrazol-3-yl)-5-(1-(pyridin-3-yl)ethyl)-5H-pyrrolo[2,3-b]pyrazin-3-amine]	–	–
–	–	(S)-7-chloro-N-(5-isopropyl-1H-pyrazol-3-yl)-5-(1-(pyridin-3-yl)ethyl)-5H-pyrrolo[2,3-b]pyrazin-3-amine [Example 6]	2.23	869

Reference: patent US20260217719A1, “CDK2 INHIBITORS” (BLUEPRINT MEDICINES CORPORATION, priority 2023, published 2026)
